In ChEMBL document CHEMBL3352802, “Injury-induced biosynthesis of methyl-branched polyene pigments in a white-rotting basidiomycete” (J Nat Prod, 2014) one finds GI50 and CC50 data, which are given here for five molecules.

One series deals with HUVEC. The experiment in a line: Antiproliferative activity against HUVEC cells after 72 hrs. Format: functional. The conditions noted are these: Homo sapiens.
For a further series, the system named is K562. The experiment in a line: Antiproliferative activity against human K562 cells after 72 hrs. The conditions noted are these: K562, 72 h. Format: functional.
Series [1] is described as follows: Cytotoxicity against human HeLa cells assessed as cell death. Format: cell-based.

The structures appear in SMILES notation.

As to `CC(=O)/C(C)=C/C=C/C=C\C=C\C=C\C=C\C=C\C=C/CC(=O)O`, the 50% growth inhibitory concentration (GI50) – broadly, the concentration at which growth is held to half of that of the control – is 71.6 µM in the series with HUVEC and 15.4 µM in the series on K562. In addition, in series [1], the cytotoxic concentration (CC50) (as a rule, the concentration that lowers cell viability or growth by half) is 44.1 µM.

As for `CC(=O)/C(C)=C/C=C/C=C\C=C\C=C\C=C\C=C\C=C/C=C/CC(=O)O`, the GI50 in the series with HUVEC was 17.4 µM; with K562, 1.1 µM. In series [1], the CC50 turned out to be 45.1 µM.

In turn, `CC(=O)[C@]1(O)Cc2c(O)c3c(c(O)c2[C@@H](O[C@H]2C[C@H](N)[C@H](O)[C@H](C)O2)C1)C(=O)c1ccccc1C3=O` [IDARUBICIN] displayed a GI50 in the series on K562 of 3.3 µM.

Turning to `CCc1c2c(nc3ccc(OC(=O)N4CCC(N5CCCCC5)CC4)cc13)-c1cc3c(c(=O)n1C2)COC(=O)[C@]3(O)CC` [IRINOTECAN], halving of growth with K562 (GI50) required 1.9 µM.

Turning to `CC/C(=C(\c1ccccc1)c1ccc(OCCN(C)C)cc1)c1ccccc1` [TAMOXIFEN], growth in the series on K562 was halved (GI50) at 5.2 µM.
